Read-outs that look alike come from different tables or passages of the source.

The target in one assay is T1, Glucocorticoid Receptor (Homo sapiens, UniProt P04150).
T1 construct: These cells express large amount of the GR and are very responsive to GC treatment; endogenous in cells; host or cells: A549 cells transiently transfected with the MMTV-LUC reporter
T1 sequence (P04150 1-777): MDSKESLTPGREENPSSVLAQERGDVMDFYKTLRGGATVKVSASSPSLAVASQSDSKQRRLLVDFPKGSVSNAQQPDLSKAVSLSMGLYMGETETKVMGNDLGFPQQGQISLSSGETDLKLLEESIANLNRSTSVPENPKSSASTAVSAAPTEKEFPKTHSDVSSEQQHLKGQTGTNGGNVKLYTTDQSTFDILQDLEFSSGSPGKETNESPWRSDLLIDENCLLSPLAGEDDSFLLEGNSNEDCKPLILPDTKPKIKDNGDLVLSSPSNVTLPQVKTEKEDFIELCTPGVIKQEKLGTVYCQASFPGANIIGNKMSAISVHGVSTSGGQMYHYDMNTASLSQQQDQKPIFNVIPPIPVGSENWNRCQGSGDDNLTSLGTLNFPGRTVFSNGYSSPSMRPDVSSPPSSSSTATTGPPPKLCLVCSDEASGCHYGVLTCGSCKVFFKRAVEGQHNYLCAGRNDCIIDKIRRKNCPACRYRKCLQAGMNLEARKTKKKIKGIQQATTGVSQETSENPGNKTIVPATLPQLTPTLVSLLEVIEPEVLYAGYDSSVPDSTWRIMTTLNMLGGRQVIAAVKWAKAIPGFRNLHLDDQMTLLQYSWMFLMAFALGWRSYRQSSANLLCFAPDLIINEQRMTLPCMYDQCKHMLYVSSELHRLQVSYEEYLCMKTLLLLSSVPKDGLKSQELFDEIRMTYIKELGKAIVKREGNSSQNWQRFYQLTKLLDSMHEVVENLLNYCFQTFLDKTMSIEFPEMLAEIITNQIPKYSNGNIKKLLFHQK
The assay is described as follows: Trans-Activation Modulation of Glucocorticoid Receptor (GRAMMER), MMTV-LUC reporter gene in A549 cells. The format is cell-based. The note with it: for Emax: A549, A549 cells, read-out: Transactivation A549 Cells GRAMMER Emax; for Emax / Transactivation A549 Cells GRAMMER Emax: Emax relative to 300 nM dexamethasone; for EC50: inflection point, read-out: Transactivation A549 Cells GRAMMER IP; for EC50 / Transactivation A549 Cells GRAMMER Emax: A549 cells. The method, boiled down:
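Luciferase from a transiently transfected MMTV-LUC reporter was measured after 24 h compound exposure (≤1% DMSO) in A549 or MDA-MB-453 cells. For antagonism, the decrease of 10 nM dexamethasone-induced signal was calculated. For agonism, Emax was referenced to 300 nM dexamethasone.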

Another assay has as its target T2, human GR (Homo sapiens, UniProt P04150).
T2 construct: U937 cells contain an endogenous glucocorticoid receptor (GR); endogenous in cells; host or cells: U937 cells stably transfected with the TNF-alpha promoter/beta-lactamase reporter
T2 sequence (P04150 1-777): T1 sequence (P04150 1-777)
As to the kind of experiment: Transrepression Assay (GITAR), TNFα-β-lactamase reporter gene in U937 cells. The format is cell-based. The note with it: for EC50: inflection point, read-out: Transrepression U937 Cells GITAR IP; for EC50 / Transrepression U937 Cells GITAR Emax: U937 cells. The method, boiled down:
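Repression of PMA (5 ng/ml final)/LPS (100 ng/ml final)-induced TNF-α promoter activity, read as β-lactamase cleavage of CCF2-AM, in stably transfected U937 cells expressing native GR. Compound added 30-45 min before stimulation, overnight (~18 hr) 37° C; normalized to 100 nM dexamethasone (100%).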

Assay [1] has as its target T3, glucocorticoid receptor (GR) (Homo sapiens, UniProt P04150).
T3 sequence (P04150 1-777): T1 sequence (P04150 1-777)
As to the kind of experiment: Ligand binding assay (GR BIND), 3H-dexamethasone displacement in MDA-MB-453 cell lysate.

Setting [2] is: GITAR Emax minus GRAMMER Emax, Table 1.
[3] abbreviates: U-937, U937 cells, activity repressed by 100 nM dexamethasone = 100%, Table 1, read-out: Transrepression U937 Cells GITAR Emax.
Setting [4] is: U-937, text statement, 100 nM dexamethasone = 100%, read-out: maximal activity in the transrepression assay (GITAR).
Where [5] appears, read: activity repressed by 100 nM dexamethasone = 100%, Table 1.
[6] abbreviates: compounds in the art (WO03/086294).

As to `COc1ccccc1CCN(CC(O)CC(F)(F)F)C(=O)[C@H]1CCC2=Cc3c(cnn3-c3ccc(F)cc3)C[C@@]21C` (stereo partly drawn) [Compound 86, (4αR,5S)-1-(4-fluorophenyl)-N-[2-(2-methoxyphenyl)ethyl]-4α-methyl-N-(4,4,4-trifluoro-2-hydroxybutyl)-1,4,4α,5 ,6,7-hexahydrocyclopenta[f]indazole-5-carboxamide], the Emax on Glucocorticoid Receptor (Table 1) was 18.8%; on human GR (setting [3]), 53.9%; at human GR (setting [4]) it was greater than 5%. Moreover, the EC50 at Glucocorticoid Receptor (Table 1) came out at 412 nM; at human GR (Table 1), 869 nM. Also, the “GITAR Greater than by GRAMMER % SEP” value at human GR (setting [2]) is 35.1%. In addition, the Ki in assay [1] (GR BIND Ki, Table 1) turned out to be 11.5 nM.

For `C[C@]12Cc3cnn(-c4ccc(F)cc4)c3C=C1CC[C@@H]2C(=O)N(CCc1ccccc1F)CC(O)CC(F)(F)F` (stereo partly drawn) [Compound 87, (4αR,5S)-1-(4-fluorophenyl)-N-[2-(2-fluorophenyl)ethyl]-4α-methyl-N-(4,4,4-trifluoro-2-hydroxybutyl)-1,4,4α,5,6,7-hexahydrocyclopenta[f]indazole-5-carboxamide], at Glucocorticoid Receptor (Table 1), the “Transactivation A549 Cells GRAMMER Emax” value was determined as 38.0% and the EC50 was 287 nM. Besides, the “GITAR Greater than by GRAMMER % SEP” value on human GR (setting [2]) stood at 23.1%. For the same compound, the “Transrepression U937 Cells GITAR Emax” value on human GR (setting [5]) was found to be 61.1%. Besides, the Emax on human GR (setting [4]) is greater than 5%. Besides, at human GR (Table 1), the EC50 came out at 232 nM. This compound displayed an inhibition constant (Ki) in assay [1] (GR BIND Ki, Table 1) of 0.8 nM.

`CCCN(CCC(F)(F)F)C(=O)[C@H]1CCC2=Cc3c(cnn3-c3ccc(F)cc3)C[C@@]21C` [Compound 88, (4αR,5S)-1-(4-fluorophenyl)-4α-methyl-N-propyl-N-(3,3,3-trifluoropropyl)-1,4,4α,5,6,7-hexahydrocyclopenta[f]indazole-5-carboxamide]: the Emax was 68% on Glucocorticoid Receptor (Table 1), 73.9% on human GR (setting [3]) and greater than 5% on human GR (setting [4]). The EC50 at Glucocorticoid Receptor (Table 1) was 371 nM; at human GR (Table 1) it was 234 nM. Also, at human GR (setting [2]), the “GITAR Greater than by GRAMMER % SEP” value stood at 5.9%. The affinity in assay [1] (GR BIND Ki, Table 1), expressed as Ki, was 2.2 nM.

In the case of `CO[C@H](C)CN(C)C(=O)[C@H]1CCC2=Cc3c(cnn3-c3ccc(F)cc3)C[C@@]21C` [Compound 89, (4αR,5S)-1-(4-fluorophenyl)-N-[(2R)-2-methoxypropyl]-N,4α-dimethyl-1,4,4α,5,6,7-hexahydrocyclopenta[f]indazole-5-carboxamide], the Emax is 3.7% at Glucocorticoid Receptor (Table 1), 10.2% on human GR (setting [3]) and greater than 5% on human GR (setting [4]). The EC50 at Glucocorticoid Receptor (Table 1) was found to be 492 nM; on human GR (Table 1) it was 3450 nM. Also, the “GITAR Greater than by GRAMMER % SEP” value on human GR (setting [2]) amounted to 6.5%. Further, the affinity in assay [1] (GR BIND Ki, Table 1), expressed as Ki, was 120 nM.

Consider `CN(CCC(F)(F)F)C(=O)[C@H]1CCC2=Cc3c(cnn3-c3ccc(F)cc3)C[C@@]21C` [Compound 90, (4αR,5S)-1-(4-fluorophenyl)-N,4α-dimethyl-N-(3,3,3-trifluoropropyl)-1,4,4α,5,6,7-hexahydrocyclopenta[f]indazole-5-carboxamide], for which the Emax at Glucocorticoid Receptor (Table 1) was 20.3%; at human GR (setting [3]), 44.5%; at human GR (setting [4]), greater than 5%. Besides, the EC50 at Glucocorticoid Receptor (Table 1) was found to be 565 nM; at human GR (Table 1), 609 nM. The “GITAR Greater than by GRAMMER % SEP” value on human GR (setting [2]) worked out at 24.2%. The Ki in assay [1] (GR BIND Ki, Table 1) was 17.3 nM.

Turning to `CCN(CCC(F)(F)F)C(=O)[C@H]1CCC2=Cc3c(cnn3-c3ccc(F)cc3)C[C@@]21C` [Compound 91, (4αR,5S)-N-ethyl-1-(4-fluorophenyl)-4α-methyl-N-(3,3,3-trifluoropropyl)-1,4,4α,5,6,7-hexahydrocyclopenta[f]indazole-5-carboxamide], the Emax was 44.5% on Glucocorticoid Receptor (Table 1), 75.1% at human GR (setting [3]) and greater than 5% on human GR (setting [4]). In addition, the results for the EC50 on Glucocorticoid Receptor (Table 1) and at human GR (Table 1) were 312 nM and 333 nM, respectively. In addition, on human GR (setting [2]), the “GITAR Greater than by GRAMMER % SEP” value is listed as 30.6%. In addition, the affinity in assay [1] (GR BIND Ki, Table 1) corresponds to a Ki of 4.5 nM.

With `C[C@]12Cc3cnn(-c4ccc(F)cc4)c3C=C1CC[C@@H]2C(=O)N(CCc1ccccc1F)CC(O)C(F)(F)F` (stereo partly drawn) [Compound 92, (4αR,5S)-1-(4-fluorophenyl)-N-[2-(2-fluorophenyl)ethyl]-4α-methyl-N(3,3,3-trifluoro-2-hydroxypropyl)-1,4,4α,5,6,7-hexahydrocyclopenta[f]indazole-5-carboxamide], the “Transactivation A549 Cells GRAMMER Emax” value on Glucocorticoid Receptor (Table 1) is recorded as 40.2%. Besides, the figures for the EC50 at Glucocorticoid Receptor (Table 1) and on human GR (Table 1) were 285 nM and 143 nM, respectively. On human GR (setting [2]), the “GITAR Greater than by GRAMMER % SEP” value is 4.7%. Besides, on human GR (setting [5]), the “Transrepression U937 Cells GITAR Emax” value was determined as 44.9%. Also, in assay [1] (GR BIND Ki, Table 1), the affinity, expressed as Ki, was 1.5 nM.

Turning to `C[C@]12Cc3cnn(-c4ccc(F)cc4)c3C=C1CC[C@@H]2C(=O)N(CCc1ccccc1F)CC(O)C(F)(F)F` (stereo partly drawn) [Compound 93, (4αR,5S)-1-(4-fluorophenyl)-N-[2-(2-fluorophenyl)ethyl]-4α-methyl-N-(3,3,3-trifluoro-2-hydroxypropyl)-1,4,4α,5,6,7-hexahydrocyclopenta[f]indazole-5-carboxamide], on Glucocorticoid Receptor (Table 1), the “Transactivation A549 Cells GRAMMER Emax” value stood at 61.7% and the EC50 was 277 nM. The “GITAR Greater than by GRAMMER % SEP” value at human GR (setting [2]) came to 5.9%. Moreover, the “Transrepression U937 Cells GITAR Emax” value at human GR (setting [5]) is recorded as 67.5%. In addition, on human GR (Table 1), the EC50 was determined as 172 nM. The affinity in assay [1] (GR BIND Ki, Table 1), expressed as Ki, was 1.1 nM.

Consider `C[C@]12Cc3cnn(-c4ccc(F)cc4)c3C=C1CC[C@@H]2C(=O)N(CCc1ccccc1F)CC(O)CC(F)(F)F` (stereo partly drawn) [Compound 94, (4αR,5S)-l-(4-fluorophenyl)-N-[2-(2-fluorophenyl)ethyl]-4α-methyl-N-(4,4,4-trifluoro-2-hydroxybutyl)-1,4,4α,5,6,7-hexahydrocyclopenta[f]indazole-5-carboxamide], for which the Emax at Glucocorticoid Receptor (Table 1) was found to be 43.8%; at human GR (setting [3]), 51.8%. In addition, the EC50 at Glucocorticoid Receptor (Table 1) stood at 363 nM; at human GR (Table 1), 531 nM. Besides, the “GITAR Greater than by GRAMMER % SEP” value on human GR (setting [2]) was determined as 8.0%. In assay [1] (GR BIND Ki, Table 1), this compound returned an inhibition constant Ki of 1.8 nM.

As to `C[C@]12Cc3cnn(-c4ccc(F)cc4)c3C=C1CC[C@@H]2C(=O)N(CCc1ccccc1F)CC(O)CC(F)(F)F` (stereo partly drawn) [Compound 95, (4αR,5S)-1-(4-fluorophenyl)-N-[2-(2-fluorophenyl)ethyl]-4α-methyl-N-(4,4,4-trifluoro-2-hydroxybutyl)-1,4,4α,5,6,7-hexahydrocyclopenta[f]indazole-5-carboxamide], at Glucocorticoid Receptor (Table 1), the “Transactivation A549 Cells GRAMMER Emax” value was 46.9% and the EC50 was 374 nM. The “GITAR Greater than by GRAMMER % SEP” value at human GR (setting [2]) came out at 7.3%. In addition, the “Transrepression U937 Cells GITAR Emax” value at human GR (setting [5]) came out at 54.2%. Further, the EC50 at human GR (Table 1) is 282 nM. In addition, the inhibition constant (Ki) in assay [1] (GR BIND Ki, Table 1) was found to be 1 nM.

As for `C[C@]12Cc3cnn(-c4ccc(F)cc4)c3C=C1CC[C@@H]2C(=O)NCc1ccccc1` [reference compound], the Emax came out at 103% on Glucocorticoid Receptor (compounds in the art) and 43.8% at human GR (U-937, U937 cells, activity repressed by 100 nM dexamethasone = 100%, compounds in the art, read-out: Transrepression U937 Cells GITAR Emax). Further, the EC50 on Glucocorticoid Receptor (setting [6]) stood at 502 nM; at human GR (setting [6]), 4280 nM. Further, the “GITAR > GRAMM % SEP” value at human GR (GITAR Emax minus GRAMMER Emax, compounds in the art) is reported as -59.6%. In addition, the inhibition constant Ki in assay [1] (GR BIND Ki, compounds in the art (WO03/086294)) was found to be 21.1 nM.

Regarding “(4αR,5S)-N,N-dibutyl-1-(4-fluorophenyl)- 4α-methyl-1,4,4α,5,6,7- hexahydrocyclopenta[f]indazole-5- carboxamide [Compound 9]”, at Glucocorticoid Receptor (Table 1), the “Transactivation A549 Cells GRAMMER Emax” value was 38.5% and the EC50 is 360 nM. Also, the “GITAR Greater than by GRAMMER % SEP” value on human GR (setting [2]) was 15.9%. Besides, the “Transrepression U937 Cells GITAR Emax” value at human GR (setting [5]) was 54.4%. In addition, on human GR (Table 1), the EC50 is 497 nM. The Ki in assay [1] (read-out: GR BIND Ki, Table 1) came to 1 nM.
